pEC50: −log10 of the molar value. Like-named read-outs stand apart in the source and are kept apart here.
How the values were obtained:
[1] = tested on: 3D7 P. falciparum strain; assay: parasite proliferation assay in infected red blood cells (SYBR Green I); type: cell-based, Plasmodium falciparum; conditions: 3D7 strain, read-out: EC50 3D7 strain
Method in brief: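 P. falciparum 3D7 grown in O+ human erythrocytes to 3–8% parasitemia and exposed to compounds. Proliferation read as the increase in parasite DNA. Detection used SYBR Green I in saponin/triton-X/EDTA lysis buffer, with overnight lysis at room temperature.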

[2] = tested on: W2 strain; assay: parasite proliferation assay in infected red blood cells (SYBR Green I), W2 strain; type: cell-based
Description: Compounds of the invention can be assayed to measure their capacity to inhibit proliferation of parasitemia in infected red blood cells. The proliferation is quantified by the addition of SYBR Green I (INVITROGEN)® dye which has a high affinity for double stranded DNA.

[3] = Plasmodium falciparum, 3D7, Erythrocyte
[4] = Plasmodium falciparum, Erythrocyte

Compound | pEC50 [1, 3] | pEC50 ([2]; Erythrocyte) | pEC50 [2, 4] | pEC50 [1] | pEC50 [2]
Cc1ccc(Nc2c(-c3ccc(F)cc3)nc3n2CCN(C(=O)[C@@H]2CC(=O)N2)C3)cc1 [Compound 162] | 5.75 | 5.86 |  |  | 
Cc1ccc(Nc2c(-c3ccc(F)cc3)nc3n2CCN(C(=O)[C@H](CCCCNC(=O)OC(C)(C)C)NC(=O)OCc2ccccc2)C3)cc1 [Compound 152] | 5.41 | 6.06 |  |  | 
CC1(C)c2nc(-c3ccc(F)cc3)c(Nc3ccc(F)cc3)n2CCN1C(=O)CNC(=O)CCNC(=O)CCc1ccccc1 [Compound 728] | 5.27 |  | 5.83 |  | 
N[C@@H](C(=O)N1CCn2c(nc(-c3ccc(F)cc3)c2Nc2ccc(F)cc2)C1)C(F)(F)F [Compound 196] | 6.49 | 6.46 |  |  | 
CCCCC(=O)Nc1ccc(C[C@H](NC(=O)OC(C)(C)C)C(=O)N2CCn3c(nc(-c4cccc(F)c4)c3Nc3ccc(F)cc3)C2)cc1 [Compound 254] | 5.46 | 6.14 |  |  | 
Cc1ccc(Nc2c(-c3ccc(F)cc3)nc3n2CCN(C(=O)[C@H]2CCN2)C3)cc1 [Compound 89] | 7.30 | 7.14 |  |  | 
CC(=O)NCCCC[C@H](N)C(=O)N1CCn2c(nc(-c3ccc(F)cc3)c2Nc2ccc(C)cc2)C1 [Compound 101] | 5.29 | 5.36 |  |  | 
Cc1ccc(Nc2c(-c3ccc(F)cc3)nc3n2CCN(C(=O)C(C)(C)Nc2ccccc2)C3)cc1 [Compound 374] | 6.23 | 6.61 |  |  | 
Cc1ccc(Nc2c(-c3ccc(F)cc3)nc3n2CCN(C(=O)C2CCCNC2)C3)cc1 (centres unmarked) [Compound 86] |  |  |  | 6.15 | 6.12
O=C(c1ccc2ncccc2c1)N1CCn2c(nc(-c3ccc(F)cc3)c2Nc2ccc(Cl)c(F)c2)C1 [Compound 370] | 5.36 | 5.08 |  |  | 
NCC(=O)N1CCn2c(nc(-c3ccc(Cl)cc3)c2Nc2ccc(F)cc2)C1 [Compound 55] | 6.18 | 6.36 |  |  | 
Cc1ccc(CC(N)C(=O)N2CCn3cc(-c4ccc(F)cc4)nc3C2(C)C)cc1 (centres unmarked) [Compound 700, 2-amino-1-(2-(4-fluorophenyl)-8,8-dimethyl-5,6-dihydroimidazo[1,2-a]pyrazin-7(8H)-yl)-3-p-tolylpropan-1-one] | < 5.02 |  | 5.15 |  | 
Cc1ccc(Nc2c(-c3ccc(F)cc3)nc3n2CCN(C(=O)c2cc(=O)[nH]c(=O)[nH]2)C3)cc1 [Compound 165] | < 4.99 | 5.33 |  |  | 
Cc1ccc(Nc2c(-c3ccc(F)cc3)nc3n2CCN(C(=O)C2(O)CCCCC2)C3)cc1 [Compound 117] | 5.90 | 5.93 |  |  | 
Cc1ccc(Nc2c(-c3cccc(C)c3)nc3n2CCNC3)cc1 [Example 266, 2-m-tolyl-N-p-tolyl-5,6,7,8-tetrahydroimidazo[1,2-a]pyrazin-3-amine] | 5.93 | 5.88 |  |  | 
CC1(C)c2nc(-c3ccc(F)cc3)c(Nc3ccc(F)cc3)n2CCN1C(=O)CNC(=O)CCNC(=O)CCc1ccc2oc3ccccc3c2c1 [Compound 729] | < 5.00 |  | 5.20 |  | 
Cc1ccc(Nc2c(-c3ccc(F)cc3)nc3n2CCN(C(=O)[C@H](C)N)C3)cc1 [Compound 83] | 7.10 | 6.88 |  |  | 
Cc1ccc(Nc2c(-c3ccc(F)cc3)nc3n2CCN(C(=O)C(C)(C)N)C3)cc1C#N [Compound 630] | 7.46 |  | 7.07 |  | 
Cc1ccc(Nc2c(-c3ccc(F)cc3)nc3n2CCN(C(=O)C2CCCNC2)C3)cc1 (centres unmarked) [Compound 87] |  |  |  | 7.70 | 7.92
Cc1ccc(-c2nc3n(c2Nc2ccc(F)cc2)CCN(C(=O)CN)C3)cc1 [Compound 52] | 5.50 | 5.47 |  |  | 
CC1(C)NC2c3nc(-c4ccc(F)cc4)c(Nc4ccc(F)c(F)c4)n3CCN2C1=O (centres unmarked) [Compound 646, 8-(3,4-difluorophenylamino)-9-(4-fluorophenyl)-2,2-dimethyl-1,2,5,6-tetrahydrodiimidazo[1,2-a:2′,1′-c]pyrazin-3(10bH)-one] | 5.25 |  | 5.21 |  | 
Cc1ccc(Nc2c(-c3ccc(F)cc3)nc3n2CC(=O)N(CCN(C)C)C3(C)C)cc1Cl [Compound 682] | 6.91 |  | 6.95 |  | 
